Measured values published in ChEMBL document CHEMBL1201862, “PubChem BioAssay data set” (2004).
Activity calls are given as the source filed them.

What was measured:
[1] = biological target: T1, Short transient receptor potential channel 4 (Mus musculus, UniProt Q9QUQ5); assay: TRPC4 positive allosteric modulators, dose response, cell-based, HEK293 TRPC4/mu-opioid, Fluo-4 calcium, EC20 DAMGO (AID 434941); type: functional
T1 sequence (Q9QUQ5 whole entry): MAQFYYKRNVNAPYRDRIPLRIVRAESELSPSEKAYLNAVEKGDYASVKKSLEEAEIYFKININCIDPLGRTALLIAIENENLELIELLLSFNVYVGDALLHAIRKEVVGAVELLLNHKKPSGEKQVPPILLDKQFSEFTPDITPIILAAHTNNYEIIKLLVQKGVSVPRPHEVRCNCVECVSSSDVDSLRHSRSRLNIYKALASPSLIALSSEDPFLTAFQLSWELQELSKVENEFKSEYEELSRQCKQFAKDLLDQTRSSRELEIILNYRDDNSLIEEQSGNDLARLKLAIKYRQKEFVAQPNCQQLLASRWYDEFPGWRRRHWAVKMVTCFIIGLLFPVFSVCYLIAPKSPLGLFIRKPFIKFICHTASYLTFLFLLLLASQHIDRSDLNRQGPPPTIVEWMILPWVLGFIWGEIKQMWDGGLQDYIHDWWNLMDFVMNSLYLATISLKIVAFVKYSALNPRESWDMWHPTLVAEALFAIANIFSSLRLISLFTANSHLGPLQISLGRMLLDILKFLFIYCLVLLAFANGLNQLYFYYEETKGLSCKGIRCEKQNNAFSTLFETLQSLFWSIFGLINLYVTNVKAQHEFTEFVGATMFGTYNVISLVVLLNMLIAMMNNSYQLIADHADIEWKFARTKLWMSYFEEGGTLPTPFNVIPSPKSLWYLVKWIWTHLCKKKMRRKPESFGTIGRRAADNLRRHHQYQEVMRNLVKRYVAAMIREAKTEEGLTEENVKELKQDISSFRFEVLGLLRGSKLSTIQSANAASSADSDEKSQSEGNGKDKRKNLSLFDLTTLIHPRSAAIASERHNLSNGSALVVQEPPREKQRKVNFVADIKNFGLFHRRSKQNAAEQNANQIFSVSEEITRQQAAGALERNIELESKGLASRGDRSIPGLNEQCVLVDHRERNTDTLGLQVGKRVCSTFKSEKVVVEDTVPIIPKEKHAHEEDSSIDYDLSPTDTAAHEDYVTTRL

[2] = biological target: Mu-type opioid receptor (Homo sapiens, UniProt P35372); type: functional, cell-based;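 further: U2OS cells with beta-arrestin recruitment to OPRM1 by beta-gal complementation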
Mu-type opioid receptor, sequence (P35372 whole entry): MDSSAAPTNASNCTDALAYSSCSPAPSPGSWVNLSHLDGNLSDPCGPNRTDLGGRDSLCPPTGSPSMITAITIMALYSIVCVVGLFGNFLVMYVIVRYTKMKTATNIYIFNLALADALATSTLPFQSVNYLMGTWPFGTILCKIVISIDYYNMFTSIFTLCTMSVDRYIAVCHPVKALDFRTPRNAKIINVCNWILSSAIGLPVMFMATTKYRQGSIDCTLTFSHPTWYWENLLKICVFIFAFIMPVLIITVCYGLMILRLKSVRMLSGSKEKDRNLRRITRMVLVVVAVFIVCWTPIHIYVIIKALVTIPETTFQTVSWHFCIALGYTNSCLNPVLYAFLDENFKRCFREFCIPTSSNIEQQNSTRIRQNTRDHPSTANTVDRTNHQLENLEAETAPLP

[3] = biological target: 5-hydroxytryptamine receptor 2A (Mus musculus, UniProt P35363); type: functional, cell-based;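 further: CHO-K1 cells with tagged receptor and beta-arrestin; agonist potency measured as compound-induced activation of the receptor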
5-hydroxytryptamine receptor 2A, sequence (P35363 whole entry, the tested form may be a part): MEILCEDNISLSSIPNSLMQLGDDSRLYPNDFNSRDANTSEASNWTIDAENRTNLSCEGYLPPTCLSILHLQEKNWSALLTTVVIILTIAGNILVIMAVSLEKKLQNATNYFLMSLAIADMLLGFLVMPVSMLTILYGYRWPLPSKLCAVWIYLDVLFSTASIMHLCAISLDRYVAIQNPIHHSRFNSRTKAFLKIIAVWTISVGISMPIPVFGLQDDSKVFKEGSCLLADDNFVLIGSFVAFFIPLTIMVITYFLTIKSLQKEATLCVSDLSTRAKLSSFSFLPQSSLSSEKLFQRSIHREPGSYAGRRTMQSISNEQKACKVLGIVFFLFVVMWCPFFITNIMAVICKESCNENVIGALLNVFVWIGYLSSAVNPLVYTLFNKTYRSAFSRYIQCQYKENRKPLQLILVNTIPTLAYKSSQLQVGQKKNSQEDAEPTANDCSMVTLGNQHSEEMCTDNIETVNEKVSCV

[4] = biological target: NACHT, LRR and PYD domains-containing protein 1 (Homo sapiens, UniProt Q9C000); assay: NALP1 inhibitors in yeast, dose response, luminescent (AID 488860); type: functional
NACHT, LRR and PYD domains-containing protein 1, sequence (Q9C000 1-1212 limits assumed): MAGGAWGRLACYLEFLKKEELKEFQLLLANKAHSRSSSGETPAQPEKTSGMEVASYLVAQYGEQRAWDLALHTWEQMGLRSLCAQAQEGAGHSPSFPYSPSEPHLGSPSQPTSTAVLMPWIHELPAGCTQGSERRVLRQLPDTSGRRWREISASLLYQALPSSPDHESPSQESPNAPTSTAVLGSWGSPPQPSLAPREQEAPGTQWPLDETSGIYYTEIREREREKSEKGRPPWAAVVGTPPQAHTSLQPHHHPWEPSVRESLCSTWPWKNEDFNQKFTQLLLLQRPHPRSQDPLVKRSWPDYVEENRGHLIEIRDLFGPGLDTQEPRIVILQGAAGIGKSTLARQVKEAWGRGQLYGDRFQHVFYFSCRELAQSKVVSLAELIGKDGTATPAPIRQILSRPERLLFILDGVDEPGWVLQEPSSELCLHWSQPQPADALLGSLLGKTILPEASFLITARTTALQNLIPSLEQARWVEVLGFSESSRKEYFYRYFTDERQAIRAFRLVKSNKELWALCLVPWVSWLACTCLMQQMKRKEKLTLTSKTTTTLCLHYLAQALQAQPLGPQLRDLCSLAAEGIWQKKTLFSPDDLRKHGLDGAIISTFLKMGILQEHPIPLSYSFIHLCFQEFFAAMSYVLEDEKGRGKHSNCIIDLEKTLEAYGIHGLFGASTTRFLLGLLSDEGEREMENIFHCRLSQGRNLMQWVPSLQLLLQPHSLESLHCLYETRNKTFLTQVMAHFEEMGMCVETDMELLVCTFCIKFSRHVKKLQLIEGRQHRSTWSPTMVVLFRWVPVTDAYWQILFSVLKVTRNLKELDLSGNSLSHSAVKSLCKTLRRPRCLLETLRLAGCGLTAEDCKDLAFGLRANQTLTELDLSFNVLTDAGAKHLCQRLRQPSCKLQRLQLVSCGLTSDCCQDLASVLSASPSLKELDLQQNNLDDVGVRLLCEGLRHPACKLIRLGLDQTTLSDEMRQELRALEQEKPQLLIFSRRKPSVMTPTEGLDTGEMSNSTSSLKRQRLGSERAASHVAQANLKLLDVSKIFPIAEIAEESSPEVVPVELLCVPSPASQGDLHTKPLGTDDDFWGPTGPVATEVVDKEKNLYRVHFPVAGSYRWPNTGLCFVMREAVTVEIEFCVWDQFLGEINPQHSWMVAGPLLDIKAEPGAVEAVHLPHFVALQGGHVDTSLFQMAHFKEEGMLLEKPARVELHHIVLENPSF
NACHT, LRR and PYD domains-containing protein 1, sequence (Q9C000 1213-1473 limits assumed): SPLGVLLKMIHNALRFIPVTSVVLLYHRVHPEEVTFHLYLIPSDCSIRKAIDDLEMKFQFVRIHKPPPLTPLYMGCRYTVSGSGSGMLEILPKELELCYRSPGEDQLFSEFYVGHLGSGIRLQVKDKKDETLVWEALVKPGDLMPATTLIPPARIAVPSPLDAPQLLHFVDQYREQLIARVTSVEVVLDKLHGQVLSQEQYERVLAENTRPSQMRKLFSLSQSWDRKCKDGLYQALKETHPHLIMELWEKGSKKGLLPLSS

[5] = test system: Saccharomyces cerevisiae; assay: NALP1 inhibitor project selectivity study, Caspase-1/ASC signal blockade IC50 in S. cerevisiae (AID 488863); type: functional, organism-based
[6] = HEp-2 cell cytotoxicity, dose response, cytotoxicity control for RSV inhibitor project, HTS (AID 2410); type: functional; settings: human respiratory syncytial virus
[7] = biological target: T2, SUMO-activating enzyme (Homo sapiens, UniProt Q9UBT2); assay: SUMOylation inhibitor hit validation, confirmation, SUMOylation inhibitor project, biochemical, AlphaScreen (AID 2018); type: functional
T2 sequence (Q9UBE0 whole entry): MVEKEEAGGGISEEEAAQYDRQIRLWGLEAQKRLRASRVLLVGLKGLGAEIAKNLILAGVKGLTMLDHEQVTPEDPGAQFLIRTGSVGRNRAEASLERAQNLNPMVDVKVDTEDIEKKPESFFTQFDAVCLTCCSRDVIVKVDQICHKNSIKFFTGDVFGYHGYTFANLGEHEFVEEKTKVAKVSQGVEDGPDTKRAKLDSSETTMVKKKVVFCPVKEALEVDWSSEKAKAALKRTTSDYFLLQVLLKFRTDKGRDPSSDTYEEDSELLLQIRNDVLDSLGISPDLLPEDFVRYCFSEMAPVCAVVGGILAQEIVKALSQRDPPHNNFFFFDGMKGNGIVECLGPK
T2 sequence (Q9UBT2 whole entry): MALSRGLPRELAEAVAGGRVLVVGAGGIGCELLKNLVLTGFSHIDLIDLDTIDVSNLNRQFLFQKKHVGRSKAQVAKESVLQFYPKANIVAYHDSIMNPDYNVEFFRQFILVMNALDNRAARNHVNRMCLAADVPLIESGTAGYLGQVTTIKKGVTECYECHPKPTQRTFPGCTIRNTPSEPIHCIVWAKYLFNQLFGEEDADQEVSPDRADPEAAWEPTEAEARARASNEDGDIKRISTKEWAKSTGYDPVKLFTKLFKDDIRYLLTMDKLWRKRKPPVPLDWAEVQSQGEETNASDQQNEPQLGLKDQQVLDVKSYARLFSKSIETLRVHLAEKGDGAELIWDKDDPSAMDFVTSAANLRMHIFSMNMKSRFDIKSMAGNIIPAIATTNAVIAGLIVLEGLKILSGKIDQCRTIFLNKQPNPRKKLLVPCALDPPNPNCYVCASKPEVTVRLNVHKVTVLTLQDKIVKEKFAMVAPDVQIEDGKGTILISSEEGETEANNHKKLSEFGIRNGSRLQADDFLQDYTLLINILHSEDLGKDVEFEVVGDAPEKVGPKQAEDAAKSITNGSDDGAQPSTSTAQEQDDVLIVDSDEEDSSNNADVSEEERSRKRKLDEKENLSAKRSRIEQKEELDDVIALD

[8] = biological target: T2, SUMO-activating enzyme; assay: inhibitors of in vitro SUMOylation cascade, primary screen, biochemical, HTRF, uHTS (AID 2006); type: protein-complex assay
[9] = biological target: Phosphomannomutase 2 (Homo sapiens, UniProt O15305); assay: Counter screen SAR assay for PMM2 inhibitors via a fluorescence intensity assay. [Related pubchem assays (depositor defined):AID1545, AID1574]
Phosphomannomutase 2, sequence (O15305 whole entry): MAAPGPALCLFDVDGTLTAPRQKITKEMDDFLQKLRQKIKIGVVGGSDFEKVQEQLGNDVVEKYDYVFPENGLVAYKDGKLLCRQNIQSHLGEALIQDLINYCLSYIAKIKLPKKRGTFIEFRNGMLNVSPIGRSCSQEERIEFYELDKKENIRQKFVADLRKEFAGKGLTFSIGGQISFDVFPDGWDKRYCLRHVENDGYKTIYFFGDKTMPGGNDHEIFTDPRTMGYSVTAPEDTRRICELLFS

[10] = biological target: T3, Mannose-6-phosphate isomerase (Homo sapiens, UniProt P34949); assay: PMI enzyme inhibitors, confirmation, biochemical, fluorescence intensity (AID 1535)
T3 sequence (P34949 whole entry): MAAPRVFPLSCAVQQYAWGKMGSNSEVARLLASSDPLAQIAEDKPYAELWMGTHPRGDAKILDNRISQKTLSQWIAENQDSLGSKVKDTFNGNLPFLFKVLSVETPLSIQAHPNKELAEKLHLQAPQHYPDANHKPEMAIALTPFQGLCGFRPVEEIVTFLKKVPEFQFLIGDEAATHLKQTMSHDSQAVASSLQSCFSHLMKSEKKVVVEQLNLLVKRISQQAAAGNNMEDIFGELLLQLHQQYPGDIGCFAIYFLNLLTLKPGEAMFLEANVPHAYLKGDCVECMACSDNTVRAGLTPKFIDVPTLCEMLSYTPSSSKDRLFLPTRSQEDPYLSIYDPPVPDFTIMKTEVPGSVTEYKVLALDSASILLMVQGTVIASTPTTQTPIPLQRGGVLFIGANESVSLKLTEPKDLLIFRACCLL

[11] = cytotoxicity toward NIH3T3 fibroblasts, dose response, counter-screen, cell-based, ATP luminescence, mouse fibroblasts (AID 2010); type: functional;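 further: cells exposed to compound for about 90 hours before reading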
[12] = biological target: T4, Small ubiquitin-related modifier 1 (Homo sapiens, UniProt P63165); assay: inhibitors of SUMO1 peptide binding, dose response, biochemical, fluorescence polarization, uHTS hits (AID 624382); type: functional; settings: read-out: IC50_Mean
T4 sequence (P63165 whole entry): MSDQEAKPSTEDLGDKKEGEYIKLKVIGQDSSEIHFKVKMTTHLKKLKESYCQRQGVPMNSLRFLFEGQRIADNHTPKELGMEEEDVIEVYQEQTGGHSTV

[13] = inhibitors of SNCA 5'UTR-driven reporter translation, confirmation, H4 neuroglioma cells, luminescence (AID 1988); type: functional, cell-based
[14] = biological target: Cystic fibrosis transmembrane conductance regulator/Golgi-associated PDZ and coiled-coil motif-containing protein (Homo sapiens, UniProt P13569+Q9HD26); assay: CAL PDZ peptide-binding inhibitors, dose response, biochemical, fluorescence polarization, Cerulean-tagged CAL PDZ, cherry-picks (AID 504773)
[15] = biological target: T4, Small ubiquitin-related modifier 1; assay: inhibitors of SUMO1 partner interactions, dose response, biochemical, FRET (AID 624383); type: functional; settings: read-out: IC50_Mean
[16] = biological target: T5, Rac GTPase-activating protein 1 (Homo sapiens, UniProt Q9H0H5); assay: MgcRacGAP GTPase-activating activity inhibitors, confirmation, biochemical, ADP Hunter fluorescence, primary and confirmatory (AID 624330); type: functional
T5 sequence (Q9H0H5 whole entry): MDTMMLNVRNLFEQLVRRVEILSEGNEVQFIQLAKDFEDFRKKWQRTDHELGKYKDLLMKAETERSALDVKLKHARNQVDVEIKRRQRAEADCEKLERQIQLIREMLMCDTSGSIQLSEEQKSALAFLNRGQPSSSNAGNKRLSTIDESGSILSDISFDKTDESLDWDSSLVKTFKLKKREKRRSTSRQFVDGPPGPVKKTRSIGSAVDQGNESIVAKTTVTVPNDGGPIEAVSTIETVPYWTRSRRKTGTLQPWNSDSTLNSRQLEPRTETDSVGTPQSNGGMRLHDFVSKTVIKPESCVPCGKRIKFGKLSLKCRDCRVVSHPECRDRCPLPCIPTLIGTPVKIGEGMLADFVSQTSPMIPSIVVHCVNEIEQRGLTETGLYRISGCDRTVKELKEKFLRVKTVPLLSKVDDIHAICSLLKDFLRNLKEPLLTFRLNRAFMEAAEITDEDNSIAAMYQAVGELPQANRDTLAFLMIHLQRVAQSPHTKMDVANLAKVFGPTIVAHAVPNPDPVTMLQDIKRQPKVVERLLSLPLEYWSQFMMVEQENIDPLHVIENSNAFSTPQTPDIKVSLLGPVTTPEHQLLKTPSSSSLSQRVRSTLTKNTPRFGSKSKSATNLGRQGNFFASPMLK

[17] = A549 cell cytotoxicity, dose response, cytotoxicity control, plate reader, cherry-pick, antagonist series (AID 743412); type: functional, cell-based
[18] = biological target: T6, Bcl-2-related protein A1 (Mus musculus, UniProt Q07440); type: functional;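 further: confirmatory dose–response counterscreen on Bfl-1, used to check hits from a UBC13 polyubiquitin inhibitor campaign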
T6 sequence (Q07440 whole entry): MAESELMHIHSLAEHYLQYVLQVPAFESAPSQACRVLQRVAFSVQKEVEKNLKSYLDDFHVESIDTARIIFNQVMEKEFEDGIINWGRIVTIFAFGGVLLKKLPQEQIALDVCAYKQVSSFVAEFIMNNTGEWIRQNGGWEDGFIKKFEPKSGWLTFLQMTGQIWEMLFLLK

[19] = inhibitors of intracellular T. cruzi replication, confirmation, NIH3T3 host cells, beta-gal luminescence (AID 2044); type: functional, cell-based;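 further: intracellular parasites grown in NIH/3T3 mouse fibroblasts as host cells; luminescent beta-galactosidase reporter signal from transgenic T. cruzi replicating inside host cells; inhibitors lower the luminescence signal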
[20] = cytotoxicity in HEK-293T cells, dose response, cytotoxicity control for TCR NF-kB inhibitor project, luminescence, T-cell screen hits (AID 489026); type: functional, cell-based;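 further: cells exposed to compound about 14 hours before the viability readout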
[21] = Luminescence Cell-Based Dose Response HTS to Identify Inhibitors of 5'UTR Stem-Loop Driven Prion Protein mRNA Translation in H4 Neuroglioblastoma Cells. [Related pubchem assays: 1827 (Project Summary), 1813 (Primary HTS)]; type: functional
[22] = inhibitors of firefly luciferase expression or activity, dose response, H4 neuroglioma cells, luminescence (AID 1990); type: functional, cell-based
[23] = HeLa cell cytotoxicity, dose response, cytotoxicity control for MgcRacGAP inhibitor project (AID 624300); type: functional
[24] = test system: HEK293; assay: inhibitors of LMP1-driven NF-kB reporter, dose response, cell-based, HEK293, luciferase, cherry-pick (AID 588343); type: functional; settings: Homo sapiens
[25] = biological target: T7, Ubiquitin-conjugating enzyme E2 N (Homo sapiens, UniProt P61088); type: functional
T7 sequence (P61088 whole entry): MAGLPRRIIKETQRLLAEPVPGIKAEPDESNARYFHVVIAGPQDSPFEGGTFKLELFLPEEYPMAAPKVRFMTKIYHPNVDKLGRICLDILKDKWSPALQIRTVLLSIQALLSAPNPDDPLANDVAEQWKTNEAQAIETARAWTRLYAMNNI

[26] = LGR2 antagonists, dose response, cell-based, HEK293, CRE-luciferase reporter, cherry pick, set 2 (AID 743343); type: functional;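 further: transfected cells were stimulated with diluted bursicon conditioned medium after compound addition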
[27] = HEK293 cell cytotoxicity, dose response, cytotoxicity control, plate reader, cherry-picked samples (AID 743446); type: functional, cell-based
[28] = microbe, parasite or virus in culture; type: functional; settings: Mycobacterium tuberculosis
[29] = biological target: T7, Ubiquitin-conjugating enzyme E2 N; type: functional; remark: listed apart in the source
[30] = HepG2 cell cytotoxicity, dose response, cytotoxicity control, plate reader, cherry-pick, antagonist series (AID 743416); type: functional, cell-based
[31] = MC4R antagonists, dose response, counter-screen for LGR2 antagonist project, cell-based, plate reader, cherry pick (AID 743444); type: functional;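 further: transfected HEK 293 cells stimulated with alpha-MSH peptide; potency of inhibitors of the alpha-MSH evoked signal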
[32] = test system: INS1; assay: beta cell apoptosis inhibitors, cytokine rescue, dose response, luminescence, retest (AID 449756); type: functional, cell-based; settings: Rattus norvegicus;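 further: cell death triggered by IL-1 beta plus TNF-alpha plus IFN-gamma mixture; protective hits raise ATP signal compared with cytokine alone wells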
[33] = biological target: T8, Type-1 angiotensin II receptor (Homo sapiens, UniProt P30556); assay: AT1 receptor agonists, dose response, selectivity assay for APJ receptor agonist project, cell-based, uHTS hits (AID 488865); type: functional;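 further: beta-arrestin recruitment to AT1 measured by enzyme fragment complementation luminescence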
T8 sequence (P30556 whole entry): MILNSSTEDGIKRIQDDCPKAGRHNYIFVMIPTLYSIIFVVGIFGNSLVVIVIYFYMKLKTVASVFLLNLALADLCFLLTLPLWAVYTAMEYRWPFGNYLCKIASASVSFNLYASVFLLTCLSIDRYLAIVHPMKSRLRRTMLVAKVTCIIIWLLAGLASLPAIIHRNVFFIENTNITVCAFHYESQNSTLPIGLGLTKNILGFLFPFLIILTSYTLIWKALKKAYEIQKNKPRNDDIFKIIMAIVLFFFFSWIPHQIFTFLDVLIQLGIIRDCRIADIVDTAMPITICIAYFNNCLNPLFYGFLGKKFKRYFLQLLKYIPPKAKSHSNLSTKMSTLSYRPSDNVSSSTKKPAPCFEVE

## c1ccc(-c2nc(N3CCNCC3)nc3ccccc23)cc1
[1]
  EC50: 0.3 µM (active)

## COc1ccc(C)cc1NC(=O)c1ccc(CN2CCN(c3ccccc3)CC2)cc1
[2]
  EC50: 92.5 µM (inactive)
[3]
  EC50: 76.1 µM (inactive)
[4]
  IC50: > 100 µM (inactive)
[5]
  IC50: > 100 µM (inactive)
[6]
  CC50: 21.4 µM (active)

## CCOC(=O)C1CCCN(Cc2ccc(OCC)cc2)C1 (centres undefined)
[4]
  IC50: > 100 µM (inactive)
[5]
  IC50: > 100 µM (inactive)

## COc1ccc(NC(=O)CN2C(=O)S/C(=C/c3cccn3-c3ccc(C(=O)O)cc3)C2=O)cc1
[7]
  IC50: 5.52 µM (active)
[8]
  IC50: 10.5 µM (active)

## FC(F)(F)c1ccc(/N=c2\ssnc2Cl)cc1
[9]
  IC50: > 100 µM (inactive)
[10]
  IC50: 32.7 µM (active)

## COc1ccc(/C=N/Nc2cc(C)nc3ccc(OC)cc23)c(OC)c1
[11]
  EC50: 7.61 µM (active)
[12]
  IC50: > 66.6 µM (inactive)
[13]
  EC50: 8.01 µM (active)
[14]
  AC50: 38.7 µM (active)
[15]
  IC50: 9.36 µM (active)
[16]
  IC50: 36.4 µM (active)
[17]
  AC50: 4.32 µM (active)
[18]
  IC50: 11.4 µM (active)
[19]
  EC50: 0.72 µM (active)
[20]
  IC50: 28.1 µM (inactive)
[21]
  EC50: 8.29 µM (active)
[22]
  EC50: 8.87 µM (active)
[23]
  CC50: 17.9 µM (active)
[24]
  AC50: 3.43 µM (active)
[25]
  IC50: 9.1 µM (active)
[26]
  AC50: 8.34 µM (active)
[27]
  AC50: 9.83 µM (active)
[28]
  CC50: 1.77 µM (active)
[29]
  IC50: 6.39 µM (active)
[30]
  AC50: 3.97 µM (active)
[31]
  AC50: 10.8 µM (active)
[32]
  AC50: 7.95 µM (active)
[33]
  EC50: > 100 µM (inactive)

## Sc1nnc(-c2cccc(Cl)c2)n1/N=C/c1ccc(-c2ccccc2Br)o1
[7]
  IC50: 12.6 µM (active)
[8]
  IC50: 28 µM (active)
[6]
  CC50: > 50 µM (active)

## Oc1[nH]nc(-c2ccccc2)c1/C=N/c1ccc(Cl)cc1
[1]
  EC50: 2.11 µM (active)
